Like-named read-outs stand apart in the source and are kept apart here.

Experiment [1] concerns the target T1, recombinant BRD4 BD2 (Homo sapiens, UniProt O60885).
T1 construct: for recombinant BRD4 BD1 and BRD4 BD2 proteins
Description: Competitive fluorescence-polarization (FP) binding assay, BRD4 BD2. As to IC50 (nM) BRD4 BD2: probe 1.5 nM. To be noted: for Ki: read-out: Binding affinities (FP) BRD4BD2 Ki. Here is the method: (§1) Fluorescence Polarization (FP) competitive binding studies were carried out using a FAM labeled fluorescent probe (ZBA248 or BRD-1F) to determine binding affinities of representative Compounds of the Disclosure for recombinant BRD4 BD1 and BRD4 BD2 proteins. For example, equilibrium dissociation constants (Kd) values of ZBA248 to these […] proteins were determined from protein saturation experiments by monitoring the total fluorescence polarization of mixtures composed with the fluorescent probe at a fixed concentration and proteins with increasing concentrations up to full saturation. Serial dilutions of testing protein were mixed with ZBA248 to a final volume of 200 μl in the assay buffer. […] Plates were incubated at room temperature for 30 minutes with gentle shaking to assure equilibrium. […] Kd values of ZBA248 were calculated by fitting the sigmoidal dose-dependent FP increases as a function of protein concentrations using Graphpad Prism 6.0 software (Graphpad Software, San Diego, Calif.).
(§2) The IC50 and Ki values of representative Compounds of the Disclosure were determined in a competitive binding experiment as described above. Mixtures of 10 μl of the tested compounds in assay buffer with 40% Ethylene Glycol and 190 μl of preincubated protein/probe complex solution in the assay buffer (100 mM potassium phosphate, pH 6.5, 0.01% Triton X-100) were added into assay plates which were incubated at room temperature for 30 minutes with gentle shaking. Final concentrations of proteins were 10 and 6 nM in assays for BD1 and BD2 of BRD4, respectively. […] FP values were measured as described above. IC50 values were determined by nonlinear regression fitting of the competition curves.

Experiment [2] relates to MOLM-13. Description: Cell growth inhibition, MOLM-13 leukemia cells (CellTiter-Glo). The format is cell-based. To be noted: Homo sapiens, MOLM-13, 96 h; 4 days; read-out: IC50 (nM) MOLM-13 Cell Line (CellTiter-Glo assay). Here is the method: Cell growth inhibitory activity of representative Compounds of the Disclosure was determined using CellTiter-Glo® Luminescent Cell Viability Assay. […] Cell viability was determined using the CellTiter-Glo® Luminescent Cell Viability Assay Kit (Promega, Madison, Wis.) according to the manufacture's instruction. Briefly, a volume of CellTiter-Glo® Reagent equal to the volume of cell culture medium was added to each well, and then the plates were incubated at room temperature for 10-20 minutes. The luminescent signal was measured using a Tecan Infinite M1000 multimode microplate reader (Tecan, Morrisville, N.C.). The half maximal inhibitory concentration (IC50) was calculated using the GraphPad Prism 5 software (GraphPad Software, La Jolla, Calif.).
Background: Cellular ATP, detected with luciferase, serves as a proxy for viable cell number.

The test system of experiment [3] is MDA-MB-436. Kind of experiment: Cell growth inhibition, MDA-MB-436 breast cancer cells (WST-8). The note with it: Homo sapiens, 4 days. It is filed as cell-based. Here is the method: All the breast cancer cell lines were obtained from the ATCC. Cell viability was determined using the WST-8 (2-(2-methoxy-4-nitrophenyl)-3-(4-nitrophenyl)-5-(2,4-disulfophenyl)-2H-tetrazolium, monosodium salt) based Cell Counting-8 Kit (Dojindo Molecular Technologies, Inc., Rockville, Md.) according to the manufacture's instruction. […] The absorbance was measured at 450 nm using a SPECTRAmax PLUS plate reader (Molecular Devices, Sunnyvale, Calif.). The IC50 was calculated using the GraphPad Prism 5 software.
A general note: Tetrazolium dyes change colour on reduction, which living cells bring about.

Experiment [4] deals with T2, recombinant BRD4 BD1 (Homo sapiens, UniProt O60885).
T2 construct: for recombinant BRD4 BD1 and BRD4 BD2 proteins
Description: Competitive fluorescence-polarization (FP) binding assay, BRD4 BD1. As to IC50 (nM) BRD4 BD1: probe 1.5 nM. To be noted: for Ki: read-out: Binding affinities (FP) BRD4BD1 Ki. The procedure:
as §1, §2

Setting [5] is: competitive FP assay, protein 6 nM, probe […], read-out: IC50 (nM) BRD4 BD2.
[6] abbreviates: MDA-MB-436, 96 h, read-out: IC50 (nM) MDA-MB-436 Cell Line (WST assay).
Setting [7] is: competitive FP assay, protein 10 nM, probe […], read-out: IC50 (nM) BRD4 BD1.
The mark [8] stands for this setting: FP competitive binding, BRD4 BD1, read-out: Binding affinities (FP) BRD4BD1 IC50.
[9] abbreviates: FP competitive binding, BRD4 BD1.
Setting [10] is: FP competitive binding, BRD4 BD2, read-out: Binding affinities (FP) BRD4BD2 IC50.
Where [11] appears, read: FP competitive binding, BRD4 BD2.
The mark [12] stands for this setting: 96 h, MDA-MB-436 cells, read-out: Cellular data MDA-MB-436 IC50.

With `COc1cc2c(cc1-c1c(C)noc1C)[nH]c1nc(C)nc(Nc3cc(C)nn3-c3ccccc3)c12` [Cpd. No. 1, 7-(3,5-Dimethylisoxazol-4-yl)-6-methoxy-2-methyl-N-(3-methyl-1-phenyl-1H-pyrazol-5-yl)-9H-pyrimido[4,5-b]indol-4-amine], the IC50 in experiment [1] (setting [5]) was 21.8 nM; in experiment [2] it was 29.8 nM; in experiment [3] (setting [6]) it was 148 nM.

On to `COc1cc2c(cc1-c1c(C)noc1C)[nH]c1nc(C)nc(Nc3c[nH]nc3-c3ccccc3)c12` [Cpd. No. 2, 7-(3,5-Dimethylisoxazol-4-yl)-6-methoxy-2-methyl-N-(3-phenyl-1H-pyrazol-4-yl)-9H-pyrimido[4,5-b]indol-4-amine], for which the IC50 was 41.9 nM in experiment [1] (setting [5]), 68 nM in experiment [2] and 246 nM in experiment [3] (setting [6]).

As for `COc1cc2c(cc1-c1c(C)noc1C)[nH]c1nc(C)nc(Nc3sc(-c4ncco4)nc3-c3ccccc3)c12` [Cpd. No. 6, N-(7-(3,5-Dimethylisoxazol-4-yl)-6-methoxy-2-methyl-9H-pyrimido[4,5-b]indol-4-yl)-2-(oxazol-2-yl)-4-phenylthiazol-5-amine], the 50% inhibitory concentration (IC50) amounted to 52.6 nM in experiment [2] and 1520 nM in experiment [3] (setting [6]).

Take `COc1cc2c(cc1-c1c(C)noc1C)[nH]c1nc(C)nc(Nc3nn(C)c4ccccc34)c12` [Cpd. No. 12, 7-(3,5-Dimethylisoxazol-4-yl)-6-methoxy-2-methyl-N-(1-methyl-1H-indazol-3-yl)-9H-pyrimido[4,5-b]indol-4-amine]: the IC50 in experiment [1] (setting [5]) was 28.2 nM; in experiment [2], 15.2 nM; in experiment [3] (setting [6]), 59.6 nM.

Consider `COc1cc2c(cc1-c1c(C)noc1C)[nH]c1nc(C)nc(Nc3cc(C(F)(F)F)nn3C(C)(C)C)c12` [Cpd. No. 117, N-(1-(tert-Butyl)-3-(trifluoromethyl)-1H-pyrazol-5-yl)-7-(3,5-dimethylisoxazol-4-yl)-6-methoxy-2-methyl-9H-pyrimido[4,5-b]indol-4-amine], for which the half-inhibitory concentration (IC50) was 62.4 nM in experiment [4] (setting [7]), 90.9 nM in experiment [2] and 177 nM in experiment [3] (setting [6]).

Regarding `COc1cc2c(cc1-c1c(C)noc1C)[nH]c1nc(C)nc(Nc3nn(C)c4ccc(F)cc34)c12` [Cpd. No. 127, 7-(3,5-Dimethylisoxazol-4-yl)-N-(5-fluoro-1-methyl-1H-indazol-3-yl)-6-methoxy-2-methyl-9H-pyrimido[4,5-b]indol-4-amine], the IC50 in experiment [2] worked out at 178 nM; in experiment [3] (setting [6]), 508 nM.

On to `COc1cc2c(cc1-c1c(C)noc1C)[nH]c1nc(C)nc(Nc3cccc4cccnc34)c12` [Cpd. No. 210, 7-(3,5-dimethylisoxazol-4-yl)-6-methoxy-2-methyl-N-(quinolin-8-yl)-9H-pyrimido[4,5-b]indol-4-amine], for which the IC50 in experiment [4] (setting [7]) is over 1000 nM; in experiment [1] (setting [5]), over 1000 nM; in experiment [2], 1130 nM.

For the compound `COc1cc(C)cc(Nc2nc(C)nc3[nH]c4cc(-c5c(C)noc5C)c(OC)cc4c23)c1` [Cpd. No. 218, 7-(3,5-dimethylisoxazol-4-yl)-6-methoxy-N-(3-methoxy-5-methylphenyl)-2-methyl-9H-pyrimido[4,5-b]indol-4-amine], the IC50 turned out to be 17 nM in experiment [4] (setting [7]), 15 nM in experiment [1] (setting [5]) and 9340 nM in experiment [2].

For `COc1nc2c(cc1-c1c(C)noc1C)[nH]c1nc(C)nc(Nc3cc(C(C)(C)C)nn3C)c12` [compound 314, N-(3-(tert-butyl)-1-methyl-1H-pyrazol-5-yl)-7-(3,5-dimethylisoxazol-4-yl)-6-methoxy-2-methyl-9H-pyrido[2′,3′:4,5]pyrrolo [2,3-d]pyrimidin-4-amine], the IC50 is 457 nM in experiment [4] (setting [8]), 986 nM in experiment [1] (setting [10]) and over 2000 nM in experiment [3] (setting [12]). For the same compound, the Ki was determined as 146 nM in experiment [4] (setting [9]) and 209 nM in experiment [1] (setting [11]).

For the compound `COc1nc2c(cc1-c1c(C)noc1C)[nH]c1nc(C)nc(N(C)c3cc(C(C)(C)C)nn3C)c12` [compound 315, N-(3-(tert-butyl)-1-methyl-1H-pyrazol-5-yl)-7-(3,5-dimethylisoxazol-4-yl)-6-methoxy-N,2-dimethyl-9H-pyrido[2′,3′:4,5]pyrrolo[2,3-d] pyrimidin-4-amine], the 50% inhibitory concentration (IC50) was found to be 28 nM in experiment [4] (setting [8]), 16 nM in experiment [1] (setting [10]) and 164 nM in experiment [3] (setting [12]). Moreover, the figures for the inhibition constant Ki in experiment [4] (setting [9]) and in experiment [1] (setting [11]) were 7.8 nM and 4.7 nM, respectively.

As for `COc1nc2c(cc1-c1c(C)noc1C)[nH]c1nc(C)nc(N(C)c3cc(C)nn3C(C)(C)C)c12` [compound 316, N-(1-(tert-butyl)-3-methyl-1H-pyrazol-5-yl)-7-(3,5-dimethylisoxazol-4-yl)-6-methoxy-N,2-dimethyl-9H-pyrido[2′,3′:4,5]pyrrolo [2,3-d]pyrimidin-4-amine], the IC50 in experiment [4] (setting [8]) was 317 nM; in experiment [1] (setting [10]), 311 nM; in experiment [3] (setting [12]), 1020 nM. Also, the Ki in experiment [4] (setting [9]) and in experiment [1] (setting [11]) was 106 nM throughout.

As for `COc1nc2c(cc1-c1c(C)noc1C)[nH]c1nc(C)nc(N(C)c3cccc(C)c3)c12` [compound 317, 7-(3,5-dimethylisoxazol-4-yl)-6-methoxy-N,2-dimethyl-N-(m-tolyl)-9H-pyrido[2′,3′:4,5]pyrrolo[2,3-d] pyrimidin-4-amine], the IC50 came out at 74 nM in experiment [4] (setting [8]), 139 nM in experiment [1] (setting [10]) and 1140 nM in experiment [3] (setting [12]). Also, the figures for the Ki in experiment [4] (setting [9]) and in experiment [1] (setting [11]) were 27 nM and 44 nM, respectively.

For the compound `COc1nc2c(cc1-c1c(C)noc1C)[nH]c1nc(C)nc(N(C)c3nn(C)c4ncccc34)c12` [compound 318, 7-(3,5-dimethylisoxazol-4-yl)-6-methoxy-N,2-dimethyl-N-(1-methyl-1H-pyrazolo[3,4-b]pyridin-3-yl)-9H-pyrido[2′,3′:4,5]pyrrolo[2,3-d] pyrimidin-4-amine], the IC50 in experiment [4] (setting [8]) stood at 35 nM; in experiment [1] (setting [10]), 108 nM; in experiment [3] (setting [12]), 299 nM. For the same compound, the Ki in experiment [4] (setting [9]) is 12 nM; in experiment [1] (setting [11]) it was 34 nM.

In the case of `COc1nc2c(cc1-c1c(C)noc1C)[nH]c1nc(C)nc(N(C)c3c(C)cnn3C(C)C)c12` [compound 319, 7-(3,5-dimethylisoxazol-4-yl)-N-(1-isopropyl-4-methyl-1H-pyrazol-5-yl)-6-methoxy-N,2-dimethyl-9H-pyrido[2′,3′:4,5]pyrrolo[2,3-d] pyrimidin-4-amine], the IC50 in experiment [4] (setting [8]) is 102 nM; in experiment [1] (setting [10]), 92 nM; in experiment [3] (setting [12]), 646 nM. Further, the values for the Ki in experiment [4] (setting [9]) and in experiment [1] (setting [11]) were 38 nM and 27 nM, respectively.

Regarding `COc1nc2c(cc1-c1c(C)noc1C)[nH]c1nc(C)nc(N(C)c3cc(C4CC4)nn3C)c12` [compound 320, N-(3-cyclopropyl-1-methyl-1H-pyrazol-5-yl)-7-(3,5-dimethylisoxazol-4-yl)-6-methoxy-N,2-dimethyl-9H-pyrido[2′,3′:4,5]pyrrolo[2,3-d] pyrimidin-4-amine], the IC50 in experiment [4] (setting [8]) stood at 10.2 nM; in experiment [1] (setting [10]), 7 nM; in experiment [3] (setting [12]), 85 nM. Moreover, the Ki in experiment [4] (setting [9]) amounted to 1.8 nM; in experiment [1] (setting [11]) it was 1.3 nM.

On to `COc1nc2c(cc1-c1c(C)noc1C)[nH]c1nc(C)nc(N(C)C3CCCC3)c12` [compound 321, N-cyclopentyl-7-(3,5-dimethylisoxazol-4-yl)-6-methoxy-N,2-dimethyl-9H-pyrido[2′,3′:4,5]pyrrolo[2,3-d] pyrimidin-4-amine], for which the results for the IC50 in experiment [4] (setting [8]), in experiment [1] (setting [10]) and in experiment [3] (setting [12]) were 482 nM, 796 nM and 4430 nM, respectively. In addition, the Ki in experiment [4] (setting [9]) turned out to be 171 nM; in experiment [1] (setting [11]), 239 nM.

For orientation: IC50 means the concentration at which inhibition is half-maximal. For orientation: Ki means the dissociation constant of the complex between target and ligand, obtained from inhibition or displacement.

Source of the values: patent US9580430B2, “9H-pyrimido[4,5-B]indoles and related analogs as BET bromodomain inhibitors” (THE REGENTS OF THE UNIVERSITY OF MICHIGAN, priority 2014, dated 2017).
